Assay: Study KAR5585-101 Part 1 (SAD): plasma pharmacokinetics after a single oral dose of KAR5585, fasting and fed (incl. dose proportionality and food effect)
Settings: for AUC(0-inf) / AUC / concentration at 12 h / Cmax / AUC(0-t) / half-life / Tmax: human, plasma, po; for AUC: AUC0-tau
[1] = 400 mg, Geometric Mean, Cohort 3A (Fasting), 400 mg KAR5585 single oral dose, fasting
[2] = 400 mg, Geometric Mean, Cohort 3B (Fed), 400 mg KAR5585 single oral dose, fed
[3] = 400 mg, KAR5417 after 400 mg KAR5585 single oral, fasted, Cohort 3A, Geo. Mean
[4] = 400 mg, KAR5417 after 400 mg KAR5585 single oral, fasted, Cohort 3A, Mean
[5] = 400 mg, KAR5417 after 400 mg KAR5585 single oral, fed, Cohort 3B, Geo. Mean
[6] = 400 mg, KAR5417 after 400 mg KAR5585 single oral, fed, Cohort 3B, Mean
[7] = 700 mg, KAR5417 after 700 mg KAR5585 single oral, fasted, Cohort 4, Geo. Mean
[8] = 700 mg, KAR5417 after 700 mg KAR5585 single oral, fasted, Cohort 4, Mean
[9] = 1200 mg, KAR5417 after 1200 mg KAR5585 single oral, fasted, Cohort 5, Geo. Mean
[10] = 1200 mg, KAR5417 after 1200 mg KAR5585 single oral, fasted, Cohort 5, Mean
[11] = 2000 mg, KAR5417 after 2000 mg KAR5585 single oral, fasted, Cohort 6, Geo. Mean
[12] = 2000 mg, KAR5417 after 2000 mg KAR5585 single oral, fasted, Cohort 6, Mean

Method: Food effect was to be evaluated in Part 1, Period 2. Part 2 was permitted to begin before Part 1 was completed and, in each part, the data from each dose Cohort were to be reviewed for safety before the next dose Cohort was enrolled.
Part 1 had 6 Cohorts of 12 subjects each (for a total of 72 subjects) and Part 2 had 4 Cohorts of 12 subjects each (for a total of 48 subjects). In Part 1, the 12 subjects in Cohort 3 (400 mg)were studied twice, once under fasting conditions (Period 1) and once under fed conditions (Period 2) for food-effect assessment.
Pharmacokinetic data were to be summarized descriptively.

SMILES: Nc1nc(O[C@H](c2ccc(Cl)cc2-c2ccccc2)C(F)(F)F)cc(N2CCC3(CC2)CN[C@H](C(=O)O)C3)n1 [KAR5417, (S)-8-(2-amino-6-((R)-1-(5-chloro-[1,1T-biphenyl]-2-yl)-2,2,2-trifluoroeth-oxy)pyrimidin-4-yl)-2,8-diazaspiro[4.5]decane-3-carboxylic acid]
- AUC(0-inf) (400 mg, AUC0-inf, Geometric Mean, Cohort 3A (Fasting), 400 mg KAR5585 single oral dose, fasting): 3280 ng·h/mL
- AUC(0-inf) (400 mg, AUC0-inf, Geometric Mean, Cohort 3B (Fed), 400 mg KAR5585 single oral dose, fed): 6630 ng·h/mL
- AUC [1]: 3120 ng·h/mL
- AUC [2]: 6360 ng·h/mL
- AUC [3]: 3120 ng·h/mL
- AUC [4]: 3500 ng·h/mL
- AUC [5]: 6360 ng·h/mL
- AUC [6]: 6440 ng·h/mL
- AUC(0-inf) (400 mg, AUC0-∞, KAR5417 after 400 mg KAR5585 single oral, fasted, Cohort 3A, Geo. Mean): 3280 ng·h/mL
- AUC(0-inf) (400 mg, AUC0-∞, KAR5417 after 400 mg KAR5585 single oral, fasted, Cohort 3A, Mean): 3650 ng·h/mL
- AUC(0-inf) (400 mg, AUC0-∞, KAR5417 after 400 mg KAR5585 single oral, fed, Cohort 3B, Geo. Mean): 6630 ng·h/mL
- AUC(0-inf) (400 mg, AUC0-∞, KAR5417 after 400 mg KAR5585 single oral, fed, Cohort 3B, Mean): 6710 ng·h/mL
- concentration at 12 h (400 mg, C12, KAR5417 after 400 mg KAR5585 single oral, fasted, Cohort 3A, Geo. Mean): 75.2 ng/mL
- concentration at 12 h (400 mg, C12, KAR5417 after 400 mg KAR5585 single oral, fasted, Cohort 3A, Mean): 82.5 ng/mL
- concentration at 12 h (400 mg, C12, KAR5417 after 400 mg KAR5585 single oral, fed, Cohort 3B, Geo. Mean): 165 ng/mL
- concentration at 12 h (400 mg, C12, KAR5417 after 400 mg KAR5585 single oral, fed, Cohort 3B, Mean): 169 ng/mL
- Cmax [1]: 444 ng/mL
- Cmax [2]: 831 ng/mL
- Cmax [3]: 444 ng/mL
- Cmax [4]: 485 ng/mL
- Cmax [5]: 831 ng/mL
- Cmax [6]: 860 ng/mL
- AUC(0-t) (400 mg, Plasma AUC0-96, KAR5417 in plasma, 400 mg (fasted) KAR5585 single oral dose, mean): 3630 ng·h/mL
- AUC(0-t) (400 mg, Plasma AUC0-96, KAR5417 in plasma, 400 mg (fed) KAR5585 single oral dose, mean): 6590 ng·h/mL
- half-life (400 mg, t1/2, KAR5417 after 400 mg KAR5585 single oral, fasted, Cohort 3A, Geo. Mean): 9.29 h
- half-life (400 mg, t1/2, KAR5417 after 400 mg KAR5585 single oral, fasted, Cohort 3A, Mean): 11.3 h
- half-life (400 mg, t1/2, KAR5417 after 400 mg KAR5585 single oral, fed, Cohort 3B, Geo. Mean): 19.8 h
- half-life (400 mg, t1/2, KAR5417 after 400 mg KAR5585 single oral, fed, Cohort 3B, Mean): 20.5 h
- Tmax (400 mg, tmax, KAR5417 after 400 mg KAR5585 single oral, fasted, Cohort 3A, Median): 4 h
- Tmax (400 mg, tmax, KAR5417 after 400 mg KAR5585 single oral, fed, Cohort 3B, Median): 4 h
- AUC(0-t) (700 mg, AUC0-12, KAR5417 after 700 mg KAR5585 single oral, fasted, Cohort 4, Geo. Mean): 3050 ng·h/mL
- AUC(0-t) (700 mg, AUC0-12, KAR5417 after 700 mg KAR5585 single oral, fasted, Cohort 4, Mean): 4350 ng·h/mL
- AUC(0-t) (700 mg, AUC0-24, KAR5417 after 700 mg KAR5585 single oral, fasted, Cohort 4, Geo. Mean): 3720 ng·h/mL
- AUC(0-t) (700 mg, AUC0-24, KAR5417 after 700 mg KAR5585 single oral, fasted, Cohort 4, Mean): 5310 ng·h/mL
- AUC [7]: 3870 ng·h/mL
- AUC [8]: 5840 ng·h/mL
- AUC(0-inf) (700 mg, AUC0-∞, KAR5417 after 700 mg KAR5585 single oral, fasted, Cohort 4, Geo. Mean): 4170 ng·h/mL
- AUC(0-inf) (700 mg, AUC0-∞, KAR5417 after 700 mg KAR5585 single oral, fasted, Cohort 4, Mean): 6020 ng·h/mL
- concentration at 12 h (700 mg, C12, KAR5417 after 700 mg KAR5585 single oral, fasted, Cohort 4, Geo. Mean): 93.8 ng/mL
- concentration at 12 h (700 mg, C12, KAR5417 after 700 mg KAR5585 single oral, fasted, Cohort 4, Mean): 144 ng/mL
- Cmax [7]: 544 ng/mL
- Cmax [8]: 778 ng/mL
- AUC(0-t) (700 mg, Plasma AUC0-96, KAR5417 in plasma, 700 mg KAR5585 single oral dose, mean): 5990 ng·h/mL
- half-life (700 mg, t1/2, KAR5417 after 700 mg KAR5585 single oral, fasted, Cohort 4, Mean): 13.5 h
- Tmax (700 mg, tmax, KAR5417 after 700 mg KAR5585 single oral, fasted, Cohort 4, Median): 4 h
- AUC(0-t) (1200 mg, AUC0-12, KAR5417 after 1200 mg KAR5585 single oral, fasted, Cohort 5, Geo. Mean): 4580 ng·h/mL
- AUC(0-t) (1200 mg, AUC0-12, KAR5417 after 1200 mg KAR5585 single oral, fasted, Cohort 5, Mean): 5350 ng·h/mL
- AUC(0-t) (1200 mg, AUC0-24, KAR5417 after 1200 mg KAR5585 single oral, fasted, Cohort 5, Geo. Mean): 5810 ng·h/mL
- AUC(0-t) (1200 mg, AUC0-24, KAR5417 after 1200 mg KAR5585 single oral, fasted, Cohort 5, Mean): 6790 ng·h/mL
- AUC [9]: 6580 ng·h/mL
- AUC [10]: 7700 ng·h/mL
- AUC(0-inf) (1200 mg, AUC0-∞, KAR5417 after 1200 mg KAR5585 single oral, fasted, Cohort 5, Geo. Mean): 6880 ng·h/mL
- AUC(0-inf) (1200 mg, AUC0-∞, KAR5417 after 1200 mg KAR5585 single oral, fasted, Cohort 5, Mean): 7970 ng·h/mL
- concentration at 12 h (1200 mg, C12, KAR5417 after 1200 mg KAR5585 single oral, fasted, Cohort 5, Geo. Mean): 175 ng/mL
- concentration at 12 h (1200 mg, C12, KAR5417 after 1200 mg KAR5585 single oral, fasted, Cohort 5, Mean): 213 ng/mL
- Cmax [9]: 764 ng/mL
- Cmax [10]: 896 ng/mL
- AUC(0-t) (1200 mg, Plasma AUC0-96, KAR5417 in plasma, 1200 mg KAR5585 single oral dose, mean): 7910 ng·h/mL
- half-life (1200 mg, t1/2, KAR5417 after 1200 mg KAR5585 single oral, fasted, Cohort 5, Geo. Mean): 14 h
- half-life (1200 mg, t1/2, KAR5417 after 1200 mg KAR5585 single oral, fasted, Cohort 5, Mean): 14.9 h
- Tmax (1200 mg, tmax, KAR5417 after 1200 mg KAR5585 single oral, fasted, Cohort 5, Median): 6 h
- AUC(0-t) (2000 mg, AUC0-12, KAR5417 after 2000 mg KAR5585 single oral, fasted, Cohort 6, Geo. Mean): 6550 ng·h/mL
- AUC(0-t) (2000 mg, AUC0-12, KAR5417 after 2000 mg KAR5585 single oral, fasted, Cohort 6, Mean): 6910 ng·h/mL
- AUC(0-t) (2000 mg, AUC0-24, KAR5417 after 2000 mg KAR5585 single oral, fasted, Cohort 6, Geo. Mean): 8520 ng·h/mL
- AUC(0-t) (2000 mg, AUC0-24, KAR5417 after 2000 mg KAR5585 single oral, fasted, Cohort 6, Mean): 9080 ng·h/mL
- AUC [11]: 9880 ng·h/mL
- AUC [12]: 10600 ng·h/mL
- AUC(0-inf) (2000 mg, AUC0-∞, KAR5417 after 2000 mg KAR5585 single oral, fasted, Cohort 6, Geo. Mean): 10200 ng·h/mL
- AUC(0-inf) (2000 mg, AUC0-∞, KAR5417 after 2000 mg KAR5585 single oral, fasted, Cohort 6, Mean): 10900 ng·h/mL
- concentration at 12 h (2000 mg, C12, KAR5417 after 2000 mg KAR5585 single oral, fasted, Cohort 6, Geo. Mean): 280 ng/mL
- concentration at 12 h (2000 mg, C12, KAR5417 after 2000 mg KAR5585 single oral, fasted, Cohort 6, Mean): 354 ng/mL
- Cmax [11]: 1030 ng/mL
- Cmax [12]: 1080 ng/mL
- AUC(0-t) (2000 mg, Plasma AUC0-96, KAR5417 in plasma, 2000 mg KAR5585 single oral dose, mean): 10700 ng·h/mL
- half-life (2000 mg, t1/2, KAR5417 after 2000 mg KAR5585 single oral, fasted, Cohort 6, Geo. Mean): 22.1 h
- half-life (2000 mg, t1/2, KAR5417 after 2000 mg KAR5585 single oral, fasted, Cohort 6, Mean): 22.6 h
- Tmax (2000 mg, tmax, KAR5417 after 2000 mg KAR5585 single oral, fasted, Cohort 6, Median): 5 h
- Tmax (median tmax, range across cohorts, single oral 100-2000 mg KAR5585, fasting cohorts): 3 to 6 h
- time by which all subjects had measurable concentrations (postdose, single oral KAR5585): ≤ 0.25 h
- time concentrations remained above the LLOQ (single 100 mg KAR5585, fasting): up to 12 hours
- time concentrations remained above the LLOQ (single 200 mg KAR5585, fasting): ≤ 24 h
- time concentrations remained above the LLOQ / measurable (single 400 mg KAR5585, fasting): ≤ 36 h
- time concentrations remained above the LLOQ (single 700 mg KAR5585, fasting): ≤ 48 h
- time concentrations remained above the LLOQ (single 1200 mg KAR5585, fasting): ≤ 48 h
- time concentrations remained above the LLOQ (single 2000 mg KAR5585, fasting): ≤ 72 h
- dose proportionality of AUC0-inf and Cmax (power model, 95% CI of slope) (single dose range 100 to 2000 mg KAR5585, fasting): dose proportionality was concluded
- plasma concentrations of KAR5417 relative to plasma concentrations of KAR5585 (single oral KAR5585, fasting): approximately 10 fold

Reference: US20240041877A1, “DOSAGE REGIME AND METHOD FOR TREATING PULMONARY ARTERIAL HYPERTENSION” (Altavant Sciences GmbH, priority 2019, published 2024)
